In a melting point compilation (Tetko et al.; mined from patent text by program, amines drawn as free bases though some values may be those of a salt):

| Structure (SMILES) | melting point |
| --- | --- |
| COc1ccc(-c2ccc3cc(C(=O)O)ccc3c2)cc1C12CC3CC(CC(C3)C1)C2 | 321 °C |
| CC1(C)CCC(C)(C)c2cc(-c3cc(-c4ccc(C(=O)O)cc4)ccc3O)ccc21 | 240 to 241 °C |
| C[C@H](Cn1ncnn1)n1cnc2cc3c(=O)n(C4CC4)cnc3cc2c1=O | 221 to 223 °C |
| O=C1O[C@@H](CO)[C@H]2CCc3cc(O)ccc3N12 (relative stereo) | 250 °C |
| NS(=O)(=O)c1csc2cc(O)cnc12 | 245 to 247 °C |
| COc1ccc(S(=O)(=O)F)nn1 | 87 to 88 °C |
| CC(=O)NC[C@H]1CN(c2ccc(-c3ncns3)c(F)c2)C(=O)O1 | 199 to 200 °C |
| CCN1c2ncccc2C(=O)Nc2c(C)cc(NCCCO)nc21 | 222 to 224 °C |
| CC(C)[Si](C)(C)CCCSCCCNC(=O)n1cc(F)c(=O)[nH]c1=O | 101 to 102 °C |
| COC(=O)c1csc(NC(=O)[C@H](CC2CCCC2)c2ccc(Cl)c(Cl)c2)n1 | 143 to 144 °C |
| CCOC(=O)c1ccc(Nc2ccc([N+](=O)[O-])cc2[N+](=O)[O-])cc1 | 99 to 102 °C |
| Cc1cc(C)c2c(c1O)C(N1CCCC1)C1CCCCC21 (stereo not drawn) | 96 to 97 °C |
| COc1cc(Nc2c(C#N)cnc3cc4cc(OC)c(OCCN5CCC(O)CC5)cc4cc23)c(Cl)cc1C | 205 to 235 °C |
| CCC(Oc1ccccc1C(C)=O)C(=O)OC1CC(O)C=C2C=CC(C)C(CCC3CC(O)CC(=O)O3)C21 (mixture of isomers) | 148 to 150 °C |
| CCCCNC1=NS(=O)(=O)c2ccc(Cl)cc2N1 | 267 to 269 °C |
| CC(C)(O)c1cc(O)cc(C(C)(C)O)c1 | 137 to 138 °C |
| CCCC(=O)C1=C(O)CC(c2cc([N+](=O)[O-])ccc2F)CC1=O (stereo not drawn) | 132 °C |
| COCCOc1ccc(CCCOc2cc(CCC(=O)O)n(C)n2)c(Oc2ncc(C(F)(F)F)cc2Cl)c1 | 114 to 115 °C |
| O=C(C=Cc1ccc(CNC2CCCCC2)cc1)Nc1ccc(-c2ccc(Cl)cc2)cc1 | 247 to 248 °C |
| COC(=O)ON1C(=O)c2ccccc2C1=O | 129 to 135 °C |
| O=C(Nc1ccc2ccc(Cl)nc2n1)c1ccc(C(F)(F)F)cc1 | 236 °C |
| COc1cccc(Nc2ccnc(Nc3cc(OC)c(OC)c(SC)c3)n2)c1 | 68 to 70 °C |
| O=C(O)C1C=COc2cc(Cl)c(Cl)cc21 (stereo not drawn) | 114 to 117 °C |
| CC(=O)N(C)CCc1ccc(C(=O)O)cc1 | 149 to 151 °C |
| CCOC(=O)c1cn(C(C)(C)CO[Si](C)(C)C(C)(C)C)c2cc(Br)ccc2c1=O | 133 °C |
| O=Cc1cccc(-c2ccco2)n1 | 46 to 48 °C |
| CCCCCC(=O)OCn1cnc2c1c(=O)n(C)c(=O)n2C | 67 to 72 °C |

| Structure (SMILES) | melting point |
| --- | --- |
| COc1ccc(N2CCN(c3c(C)c(C)c4c(c3C)C(c3ccccn3)C(C)(C)O4)CC2)cc1 (stereo not drawn) | 123 to 125 °C |
| CCOC(=O)C=Cc1ccc2cc(C=CC(=O)OCC)ccc2c1 | 150 to 151 °C |
| CC(c1cccnc1)c1c[nH]c(=S)[nH]c1=O (stereo not drawn) | 225 to 228 °C |
| CC(=O)Nc1cc(Cl)cc(Cl)c1 | 182 °C |
| COc1cc2ncc(N[C@H]3CC[C@@H](O)CC3)nc2cc1OC | 65 to 67 °C |
| CCOC(=O)C1=C(C)NC(=S)N(C(=O)OCC)C1c1ccccc1[N+](=O)[O-] (stereo not drawn) | 130 to 132 °C |
| COc1ccc(CN(C(=O)C2CCCc3ccc(OC)cc32)c2ccc(OC)cc2)cc1 (stereo not drawn) | 89 to 90 °C |
| CN1CCN(c2ccc(Nc3ncc4c(n3)S/C(=C/c3ccc(F)cc3)C(=O)N4)cc2)CC1 | 172 to 175 °C |
| c1cc(N2CCNCC2)c2nccnc2c1 | 106 to 108 °C |
| Cc1ccc(S(=O)(=O)NC(=O)Nc2ccc(Br)c(C)c2)cc1 | 178 to 180 °C |
| CC(=O)CCc1ccc(I)cc1 | 75 to 76 °C |
| CC(C)(C)c1ccc(/C=C/C(=O)Nc2ccc3c(c2)NCC3)cc1 | 153 to 167 °C |
| CNC(=O)[C@@H]1CCC[C@@H]1Nc1nc(Nc2ccc3c(c2)CCN(CCOC)CC3)ncc1Cl (relative stereo) | 176 °C |
| COCCOCCOCc1c(Br)c(Br)c(Br)c(Br)c1Br | 83 °C |
| CS(=O)CC(=O)c1cc(C(C)(C)C)c(O)c(C(C)(C)C)c1 (stereo not drawn) | 144 to 145 °C |
| COc1ccc(-c2nc(Sc3ccc(C(C)(C)C)cc3)[nH]c2-c2ccc(OC)cc2)cc1 | 172 to 174 °C |
| O=C1CCCCN1S(=O)(=O)c1ccc(N2CCCCC2)cc1 | 140 to 145 °C |
| COc1cc(OC(C)C)ccc1/C=C/c1cc(/C=C/c2ccc3cc[nH]c3c2)n[nH]1 | 107 to 113 °C |
| CCOC(=O)OC1=C(c2c(C)cc(C)cc2C)C(=O)NC1C1CCN(OC)CC1 (stereo not drawn) | 154 to 155 °C |
| Cc1cn(-c2ccc([N+](=O)[O-])c(C)c2)c(C)n1 | 136 to 138 °C |
| C[C@@H]1C(=O)C[C@H]2C[C@@H]1OO[C@@]2(C)/C=C\c1ccc(C(C)(C)C)cc1 | 101 °C |
| CCOC(=O)COc1ccc(NC(=O)c2cnc(NC(=N)N)s2)cc1 | 218 °C |
| CCCCCCCCCCCCCCCC(=O)OCc1ccco1 | 31 to 33 °C |
| CCCCCCNC(=O)NC1CCCc2sccc21 (stereo not drawn) | 122 to 124 °C |
| CON=C(N)Nc1nc(C)cc(C)n1 | 134 to 136 °C |
| CNC(=S)NCCN1CCC(Nc2nc3cncnc3n2Cc2ccc(F)cc2)CC1 | 206 °C |

Further lines, results first:

| melting point | Structure (SMILES) |
| --- | --- |
| 242 to 244 °C | CS(=O)(=O)c1ccc(-c2cc(-c3c(-c4ccccn4)nc4ccccn34)ccn2)cc1 |
| 117 to 119 °C | CC(C#CCOc1cccc(Oc2ccccn2)c1)N(O)C(N)=O (stereo not drawn) |
| 148 to 150 °C | Oc1ccc(OCC(O)CNC2CCN(c3ccc(Cl)cn3)CC2)cc1 (stereo not drawn) |
| 128 °C | O=C(Oc1ccccc1)N1Cc2ccccc2C2(Cc3ccccc3O2)C1 (stereo not drawn) |
| 175 °C | CC(C)OC(=O)C1(c2onc(-c3ccc(O)cc3)c2-c2ccccc2)CC1 |
| 120 to 122 °C | OC1CCN(c2nc(-c3ccccc3)cc(-c3ccc4c(c3)OCO4)n2)CC1 |
| 211 to 213 °C | N#Cc1ccc(N(Cc2ccc(OCc3ccccc3)cc2)n2cnnc2)cc1-c1ccc(F)cc1 |
| 196 to 197 °C | O=C(NCc1ccccc1F)[C@@H]1CCCN(c2cccc3c2C(=O)N(Cc2ccncc2)C3=O)C1 |
| 92 to 95 °C | O=C(c1cc2c([nH]c3ccccc32)s1)N1CCOCC1 |
| > 250 °C | O=C(O)c1ccccc1-c1nc2ccccc2o1 |
| 113 to 114 °C | CC(C)(C)c1ccc(CN2C(=O)N(c3ccccc3)CSC2=NCC(F)(F)F)cc1 |
| 165 to 166 °C | COc1ccc(-c2c(Cl)c(Cn3cncn3)nc3sc4c(c23)CCN(Cc2ccccc2)C4)cc1OC |
| 151 to 152 °C | COc1ccc(Nc2cc(NCCCO)ncn2)cc1 |
| 96 to 97 °C | O=C(OC(c1ccccc1)c1ccccc1)C1=CCC2C1C(=O)C2(Cl)Cl (stereo not drawn) |
| 205 °C | Nc1nc(N)c2ncn(COCCOC(=O)c3ccccc3)c2n1 |
| 193 °C | C=C(C)CC(O)(C(Nc1cccc2nc(C)ncc12)c1ccc(Cl)cc1OC)C(F)(F)F (stereo not drawn) |
| 166 °C | O=C(C=Cc1ccc(-c2ccc3ncnc(Nc4ccc(OCc5cccc(F)c5)c(Cl)c4)c3c2)s1)NOC1CCCCO1 (stereo not drawn) |
| 114 to 115 °C | O=C(O)CC1c2ccccc2COc2ccccc21 (stereo not drawn) |
| 76 °C | O=C1c2ccccc2C(OCC2CO2)N1c1ccccc1 (stereo not drawn) |
| 129 to 131 °C | Cn1c(C(F)(F)F)cc(=O)n(-c2cc(OCc3ccccc3)c(Cl)cc2F)c1=O |
| 69 to 71 °C | OCC(O)Cc1cc(Cl)c2ccccc2c1OCc1ccccc1 (stereo not drawn) |
| 144 to 146 °C | COc1ccnc(C(=O)N[C@H]2COC[C@H](OCc3ccccc3)[C@@H](OCc3ccccc3)[C@H](C)OC2=O)c1O |
| 274 to 277 °C | CC1Cc2c(nc3ccc(F)cc3c2C(=O)O)-c2ccc(-c3ccccc3F)cc21 (stereo not drawn) |

| melting point | Structure (SMILES) |
| --- | --- |
| 118 to 119 °C | Cc1ccc2c(n1)N(CCCN(C(C)C)C(C)C)c1ccccc1N(C)C2=O |
| 118 to 119 °C | CCC(=O)NCc1ccc2ccn(C3CCN(CCc4ccccc4F)CC3)c2c1 |
| 58 to 60 °C | COc1ccc2cc(CCC(C)O)cc(F)c2c1 (stereo not drawn) |
| 121 to 122 °C | CCc1cc(CCNc2ncnc3c(F)ccc(F)c23)ccc1Oc1cc(C(F)(F)F)ccn1 |
| 186 to 188 °C | COc1ccc(C2=NN(c3ccc(CC(=O)O)cc3)C(=O)C(C)(C)C2)cc1OC |
| 89 to 90 °C | CN(NCc1ccccc1)c1cnn(-c2cccc(C(F)(F)F)c2)c(=O)c1 |
| 114 to 118 °C | COc1ccc(C)cc1NC(=O)Nc1ccc(N2CCN(C(=O)Nc3cc(OCC(O)CO)ccc3Cl)CC2)cc1 (stereo not drawn) |
| 185 °C | CCCOc1ccccc1-c1nc2cc(N)ccc2c(=O)[nH]1 |
| 136 to 138 °C | CCCCCC(=O)Nc1ccc2ccn(Cc3ccc(C#N)cc3OC)c2c1 |
| 164 °C | CC1CSC2=CC=NC3=CC=CC(c4ccccc4)C321 (stereo not drawn) |
| 148 to 150 °C | O=C(NCCO)c1cccc(-c2cccn3c(=O)n(Cc4cccc(C(F)(F)F)c4)nc23)c1 |
| 162 °C | Cc1nn(-c2cc(Oc3ccc(O)cc3)c(Cl)cc2F)c(=O)n1C(F)F |
| 119 to 121 °C | COc1ccc(C(=O)Oc2ccc(COc3ccc4c(c3)CCC(CN(C)C)C4)cc2)cc1 (stereo not drawn) |
| 129 to 130 °C | CC1CN(c2cc3c(c(NCc4ccccc4)c2F)c(=O)c(C(=O)O)cn3C2CC2)CCN1 (stereo not drawn) |
| 92 to 94 °C | CC(C)(OCc1cc2cc(C(F)(F)F)ccc2n1S(=O)(=O)c1ccc2c(c1)CCO2)C(=O)O |
| 190 °C | N=C(CC1=CCC=CC1)N1C[C@@H]2C(=O)CCC(c3ccccc3)(c3ccccc3)[C@@H]2C1 (racemic) |
| 190 to 194 °C | CN1C(=O)CCCc2cc(Nc3ncc(Cl)c(Nc4ccccc4C(=O)NCCO)n3)ccc21 |
| 160 to 162 °C | CC(C)(C)N(NC(=O)c1ccco1)C(=O)c1ccccc1 |
| 152 to 153 °C | Cc1nn(-c2ccc(C(F)(F)F)cn2)cc1COc1cccc(OC(C)(C)C(=O)O)c1 |
| 181 to 186 °C | CCc1cc(Nc2ccc(Sc3ccncc3)cc2)nc(N)n1 |
| 92 to 93 °C | NC(=O)CCc1cccc2c1C[C@@H](CCCCc1ccccc1)O2 |
| 141 to 142 °C | Cn1c2ccc(Cl)cc2c2c3ccccc3c(OCC3CC3)nc21 |
